Here are results for three compounds from publication PMC4166484 (European journal of medicinal chemistry, 2011).

In one series the test system is SKBR-3 cells. Nature of the series: Cell cycle distribution by FACS. The series is classed as cell-based. The settings on record: SKBR-3, 0.5 μM and 5 μM, after 12h. Background: In flow cytometry, cells or beads pass a laser one at a time.
The nature of series [1]: Pharmacokinetic study, intraperitoneal. The series is classed as in vivo, Sprague-Dawley rats. The settings on record: male, Sprague-Dawley, rat, plasma, ip, 20 mg/kg.
The test system of series [2] is 60 human tumor cell lines. Kind of series: NCI DTP screen against 60 human tumor cell lines. The series is classed as cell-based. The settings on record: read-out: IC50s, growth of a broad range of cancer cell lines.
The test system of a further series is A498. The series is classed as cell-based. To be noted: Homo sapiens, A498, 48 h.
For series [3], the system named is SKBR-3 breast cancer cell. Kind of series: MTT cell viability, SKBR-3 breast cancer cell growth. The series is classed as cell-based.

Where two headings read alike, the source gives them in different places.

A word on the AUC(0-t): it is exposure summed from dosing to a finite time, without extrapolation to infinity. High values mean high exposure, low ones low exposure. In general, MRT last refers to the average time that molecules of a dose stay in the body. One may read the half-life as the time in which the quantity being followed falls by half. As a reminder, the GI50 is the concentration at which growth is held to half of that of the control. High values mean less potent growth inhibition, low ones more potent growth inhibition. Consider `Cc1ccc(C)c(COc2cc(NC(=O)c3ccc4c(c3)OCO4)ccc2N(C)S(C)(=O)=O)c1` [Compound 10, Benzo[1,3]dioxole-5-carboxylic acid [3-(2,5-dimethyl-benzyloxy)-4-(methanesulfonyl-methyl-amino)-phenyl]-amide], for which the cell cycle effect result in the series on SKBR-3 cells was “accumulated at G2/M and subG1 phase”. The area under the curve AUC(0-t) in series [1] (Rat 2, 20mg/kg i.p.) turned out to be 22600 ng·h/mL; in series [1] (Rat 3, 20mg/kg i.p.), 9720 ng·h/mL. In addition, in series [1] (MRT(0-t), Rat 3, 20mg/kg i.p.), the MRT last was determined as 5.62 h. Also, the half-life was 146 min in series [1] (T1/2, Rat 1, 20mg/kg i.p.); 223 min in series [1] (T1/2, Rat 2, 20mg/kg i.p.); 193 min in series [1] (T1/2, Rat 3, 20mg/kg i.p.). Besides, the IC50 in series [2] fell in the range of 200 to 500 nM. The same compound yielded a GI50 in the series with A498 of 122 nM.

For `COc1ccc(CC(=O)Nc2ccc(N(C)S(C)(=O)=O)c(OCc3cc(C)ccc3C)c2)cc1OC` [Compound 17, N-[3-(2,5-Dimethyl-benzyloxy)-4-(methanesulfonyl-methyl-amino)-phenyl]-(3,4-dimethoxyphenyl)-acetamide], the IC50 in series [3] (Homo sapiens, SK-BR-3, 48 h, read-out: IC50 against SKBR-3 breast cancer cell growth, 48h treatment, MTT assay, six replicates) was above 30 µM.

Turning to `Cc1ccc(C)c(COc2cc(NC(=O)Cc3ccccc3)ccc2N(C)S(C)(=O)=O)c1` [Compound 24, N-[3-(2,5-Dimethyl-benzyloxy)-4-(methanesulfonyl-methyl-amino)-phenyl]-2-phenyl-acetamide], the IC50 in series [3] (read-out: IC50 against SKBR-3 breast cancer cell growth, 48h treatment, MTT assay, six replicates) is above 30 µM.
